US9139567B2, “Arylpyrazole ethers as inhibitors of leukotriene A4 hydrolase” (Boehringer Ingelheim International GmbH, priority 2011, dated 2015)
Each block holds one compound with its values, some of them ahead of it.

Key:
[1] = target: T1, human LTA4 hydrolase (Homo sapiens, UniProt P09960); experiment: LTA4H enzyme assay (cleavage of Arg-AMC, fluorescence); format: biochemical; details: LTA4H enzyme 1 nM, Arg-AMC substrate 50 μM, room temperature 1 h
T1 sequence (P09960 1-611): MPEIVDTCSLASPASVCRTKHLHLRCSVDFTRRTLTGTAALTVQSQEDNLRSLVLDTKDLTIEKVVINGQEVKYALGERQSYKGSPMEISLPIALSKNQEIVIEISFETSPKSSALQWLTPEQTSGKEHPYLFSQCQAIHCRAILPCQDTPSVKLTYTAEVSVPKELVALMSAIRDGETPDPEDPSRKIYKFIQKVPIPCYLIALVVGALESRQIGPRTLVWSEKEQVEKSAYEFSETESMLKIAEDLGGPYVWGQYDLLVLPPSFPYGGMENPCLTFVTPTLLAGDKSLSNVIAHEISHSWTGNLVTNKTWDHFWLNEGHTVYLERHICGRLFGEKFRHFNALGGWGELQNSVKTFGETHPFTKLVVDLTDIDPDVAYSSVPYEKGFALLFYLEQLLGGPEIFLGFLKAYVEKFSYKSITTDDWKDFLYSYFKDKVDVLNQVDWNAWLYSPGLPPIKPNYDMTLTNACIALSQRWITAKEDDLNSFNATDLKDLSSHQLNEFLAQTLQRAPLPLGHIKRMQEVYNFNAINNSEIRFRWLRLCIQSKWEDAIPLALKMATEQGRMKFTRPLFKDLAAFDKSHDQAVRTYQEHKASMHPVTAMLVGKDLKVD
Procedure: Compounds are assessed for the ability to interact with human LTA4 hydrolase in an enzymatic assay that measures the ability of the enzyme to cleave the peptide bond of arginyl-aminomethylcoumarin (Arg-AMC). LTA4H Enzyme (1 nM final), Arg-AMC substrate (50 μM final), and compound are combined in a reaction buffer (50 mM Tris-HCl (pH 7.5), 100 mM KCl, 0.5% bovine serum albumin) at room temperature for 1 h. The formation of product is assessed by measuring the fluorescence of aminomethylcoumarin product (excitation wavelength 380 nm/emission wavelength 460 nm).

[2] = tested on: LTB4 production in human whole blood; experiment: LTB4 production inhibition assay in human whole blood (calcimycin-stimulated); format: cell-based; details: heparinized human whole blood, 15 min 37° C., calcimycin 20 μM 30 min, plasma LTB4 by HTRF
Procedure: Compounds of the invention are additionally tested in a human whole blood assay to determine their ability to inhibit the synthesis of LTB4 in a cellular system. Compounds are combined with heparinized human whole blood and incubated for 15 minutes at 37° C. Calcimycin (20 μM final, prepared in phosphate-buffered saline, pH 7.4) is then added and the mixture is incubated for another 30 minutes at 37° C. The samples are centrifuged for 5 min at low speed (1500×g) and the plasma layer is removed. Plasma LTB4 concentrations are then measured using an antibody-based homogenous time-resolved fluorescence method (CisBio, Bedford, Mass.).

Structure (SMILES): c1cc(-c2ccc(Oc3ccc(O[C@@H]4CCOC4)cc3)cc2)[nH]n1 [Example 4, 5-(4-{4-[(3R)-tetrahydrofuran-3-yloxy]phenoxy}phenyl)-1H-pyrazole]
IC50 [1]: 3.9 nM
IC50 [2]: 1040 nM

Structure (SMILES): c1cc(-c2ccc(Oc3ccc(OCC4CCCO4)cc3)cc2)[nH]n1 (stereo not drawn) [Example 5, 5-{4-[4-(tetrahydrofuran-2-ylmethoxy)phenoxy]phenyl}-1H-pyrazole]
IC50 [1]: 6.8 nM
IC50 [2]: 1350 nM

Structure (SMILES): O=C1CC[C@H](Oc2ccc(Oc3ccc(-c4ccn[nH]4)cc3)cn2)CN1 [Example 6, (5S)-5-({5-[4-(1H-pyrazol-5-yl)phenoxy]pyridin-2-yl}oxy)piperidin-2-one]
IC50 [1]: 3.5 nM
IC50 [2]: 1080 nM

Structure (SMILES): O=C1NCC[C@@H]1Oc1ccc(Oc2ccc(-c3ccn[nH]3)cc2)cc1 [Example 9, (3S)-3-{4-[4-(1H-pyrazol-5-yl)phenoxy]phenoxy}pyrrolidin-2-one]
IC50 [1]: 76.7 nM
IC50 [2]: ≥ 5000 nM

Structure (SMILES): O=C1NCC(COc2ccc(Oc3ccc(-c4ccn[nH]4)cc3)cc2)O1 (stereo not drawn) [Example 11, 5-({4-[4-(1H-pyrazol-5-yl)phenoxy]phenoxy}methyl)-1,3-oxazolidin-2-one]
IC50 [1]: 1.3 nM
IC50 [2]: 573 nM

Structure (SMILES): O=C1CC[C@H](Oc2ccc(Oc3ccc(-c4cc[nH]n4)cc3)cc2)CN1 [Example 13, (5S)-5-{4-[4-(1H-pyrazol-3-yl)phenoxy]phenoxy}piperidin-2-one]
IC50 [1]: 0.5 nM
IC50 [2]: 214 nM

Structure (SMILES): O=C1CC[C@@H](Oc2ccc(Oc3ccc(-c4ccn[nH]4)cn3)cc2)CN1 [Example 17, (5R)-5-(4-{[5-(1H-pyrazol-5-yl)pyridin-2-yl]oxy}phenoxy)piperidin-2-one]
IC50 [1]: 1.5 nM
IC50 [2]: 425 nM

Structure (SMILES): O=C1CC[C@@H](Oc2ccc(Cc3ccc(-c4ccn[nH]4)cc3)cc2)CN1 [Example 18, (5R)-5-{4-[4-(1H-pyrazol-5-yl)benzyl]phenoxy}piperidin-2-one]
IC50 [1]: 0.8 nM
IC50 [2]: 581 nM

Structure (SMILES): O=C1CC[C@@H](Oc2ccc(Oc3ccc(-c4ccn[nH]4)cc3)cn2)CN1 [Example 19, (5R)-5-({5-[4-(1H-pyrazol-5-yl)phenoxy]pyridin-2-yl}oxy)piperidin-2-one]
IC50 [1]: 1.9 nM
IC50 [2]: 554 nM

Structure (SMILES): O=C1N[C@@H](COc2ccc(Cc3ccc(-c4ccn[nH]4)cc3)cc2)CO1 [Example 20, (4S)-4-({4-[4-(1H-pyrazol-5-yl)benzyl]phenoxy}methyl)-1,3-oxazolidin-2-one]
IC50 [1]: 0.6 nM
IC50 [2]: 229 nM

Structure (SMILES): O=C1CCCN1CCOc1ccc(Oc2ccc(-c3ccn[nH]3)cc2)cc1 [Example 21, 1-(2-{4-[4-(lH-pyrazol-5-yl)phenoxy]phenoxy}ethyl)pyrrolidin-2-one]
IC50 [1]: 0.7 nM
IC50 [2]: 813 nM

Structure (SMILES): O=C1CCCN1CCCOc1ccc(Oc2ccc(-c3ccn[nH]3)cc2)cc1 [Example 23, 1-(3-{4-[4-(1H-pyrazol-5-yl)phenoxy]phenoxy}propyl)pyrrolidin-2-one]
IC50 [1]: 0.7 nM
IC50 [2]: 529 nM

Structure (SMILES): c1cc(-c2ccc(Cc3ccc(OCCN4CCOCC4)cc3)cc2)[nH]n1 [Example 25, 4-(2-{4-[4-(1H-pyrazol-5-yl)benzyl]phenoxy}ethyl)morpholine]
IC50 [1]: 0.5 nM
IC50 [2]: 123 nM

Structure (SMILES): Cn1ccnc1COc1ccc(Oc2ccc(-c3ccn[nH]3)cc2)cc1 [Example 26, 5-(4-{4-[(1-methyl-1H-imidazol-2-yl)methoxy]phenoxy}phenyl)-1H-pyrazole]
IC50 [1]: 1.2 nM
IC50 [2]: 2110 nM

Structure (SMILES): c1cc(-c2ccc(Oc3ccc(OCc4cnc[nH]4)cc3)cc2)[nH]n1 [Example 27, 5-{4-[4-(1H-imidazol-5-ylmethoxy)phenoxy]phenyl}-1H-pyrazole]
IC50 [1]: 2.2 nM
IC50 [2]: 1840 nM

Structure (SMILES): c1ccc2[nH]c(COc3ccc(Oc4ccc(-c5ccn[nH]5)cc4)cc3)nc2c1 [Example 28, 2-({4-[4-(1H-pyrazol-5-yl)phenoxy]phenoxy}methyl)-1H-benzimidazole]
IC50 [1]: 1.4 nM
IC50 [2]: ≥ 5000 nM

Structure (SMILES): c1cncc(CCOc2ccc(Oc3ccc(-c4ccn[nH]4)cc3)cc2)c1 [Example 29, 3-(2-{4-[4-(1H-pyrazol-5-yl)phenoxy]phenoxy}ethyl)pyridine]
IC50 [1]: 4.9 nM
IC50 [2]: 2280 nM

Structure (SMILES): c1coc(COc2ccc(Oc3ccc(-c4ccn[nH]4)cc3)cc2)c1 [Example 30, 5-{4-[4-(2-furylmethoxy)phenoxy]phenyl}-1H-pyrazole]
IC50 [1]: 65.6 nM
IC50 [2]: ≥ 5000 nM

The remaining lines, values ahead:

IC50 [1]: 0.2 nM
IC50 [2]: 52 nM
Structure (SMILES): c1cc(-c2ccc(Oc3ccc(OCC4COCCN4)cc3)nc2)[nH]n1 (racemic) [Example 16, 3-[(4-{[5-(1H-pyrazol-5-yl)pyridin-2-yl]oxy}phenoxy)methyl]morpholine]

IC50 [1]: 0.2 nM
IC50 [2]: 246 nM
Structure (SMILES): O=C1CC[C@H](COc2ccc(Oc3ccc(-c4ccn[nH]4)cc3)cc2)N1 [Example 1, (5R)-5-({4-[4-(1H-pyrazol-5-yl)phenoxy]phenoxy}methyl)pyrrolidin-2-one]

IC50 [1]: 0.2 nM
IC50 [2]: 163 nM
Structure (SMILES): O=C1CC[C@@H](COc2ccc(Oc3ccc(-c4ccn[nH]4)cc3)cc2)N1 [Example 2, (5S)-5-({4-[4-(1H-pyrazol-5-yl)phenoxy]phenoxy}methyl)pyrrolidin-2-one]

IC50 [1]: 0.2 nM
IC50 [2]: 142 nM
Structure (SMILES): O=C1CC[C@@H](COc2ccc(Oc3ccc(-c4ccn[nH]4)cn3)cc2)N1 [Example 3, (5S)-5-[(4-{[5-(1H-pyrazol-5-yl)pyridin-2-yl]oxy}phenoxy)methyl]pyrrolidin-2-one]

IC50 [1]: 0.5 nM
IC50 [2]: 280 nM
Structure (SMILES): CN1CC(COc2ccc(Oc3ccc(-c4ccn[nH]4)cc3)cc2)CC1=O (stereo not drawn) [Example 7, 1-methyl-4-({4-[4-(1H-pyrazol-5-yl)phenoxy]phenoxy}methyl)pyrrolidin-2-one]

IC50 [1]: 0.5 nM
IC50 [2]: 222 nM
Structure (SMILES): O=C1CCC(Oc2ccc(Oc3ccc(-c4ccn[nH]4)cc3)cc2)CN1 (stereo not drawn) [Example 8, 5-{4-[4-(1H-pyrazol-5-yl)phenoxy]phenoxy}piperidin-2-one]

IC50 [1]: 0.2 nM
IC50 [2]: 126 nM
Structure (SMILES): O=C1NC(COc2ccc(Oc3ccc(-c4ccn[nH]4)cc3)cc2)CO1 (stereo not drawn) [Example 10, 4-({4-[4-(1H-pyrazol-5-yl)phenoxy]phenoxy}methyl)-1,3-oxazolidin-2-one]

IC50 [1]: 0.1 nM
IC50 [2]: 104 nM
Structure (SMILES): O=C1N[C@H](COc2ccc(Oc3ccc(-c4ccn[nH]4)cc3)cc2)CO1 [Example 12, (4R)-4-({4-[4-(1H-pyrazol-5-yl)phenoxy]phenoxy}methyl)-1,3-oxazolidin-2-one]

IC50 [1]: 0.3 nM
IC50 [2]: 178 nM
Structure (SMILES): O=C1CC[C@@H](Oc2ccc(Oc3ccc(-c4cc[nH]n4)cc3)cc2)CN1 [Example 14, (5R)-5-{4-[4-(1H-pyrazol-3-yl)phenoxy]phenoxy}piperidin-2-one]

IC50 [1]: 0.3 nM
IC50 [2]: 150 nM
Structure (SMILES): O=C1N[C@@H](COc2ccc(Oc3ccc(-c4ccn[nH]4)cc3)cc2)CO1 [Example 15, (4S)-4-({4-[4-(1H-pyrazol-5-yl)phenoxy]phenoxy}methyl)-1,3-oxazolidin-2-one]

IC50 [1]: 0.2 nM
IC50 [2]: 179 nM
Structure (SMILES): c1cc(-c2ccc(Oc3ccc(OCCN4CCOCC4)cc3)cc2)[nH]n1 [Example 22, 4-(2-{4-[4-(1H-pyrazol-5-yl)phenoxy]phenoxy}ethyl)morpholine]

IC50 [1]: 0.2 nM
IC50 [2]: 123 nM
Structure (SMILES): O=C1N[C@H](COc2ccc(Oc3ccc(-c4ccn[nH]4)cn3)cc2)CO1 [Example 24, (4R)-4-[(4-{[5-(1H-pyrazol-5-yl)pyridin-2-yl]oxy}phenoxy)methyl]-1,3-oxazolidin-2-one]
